Earlier results in patent US6423719B1, “Method for treating benign prostate hyperplasia” (Upsher-Smith Laboratories, Inc., priority 1999, dated 2002).

Key:
[1] = for half life (plasma / elimination) / bioavailability: in vivo
[2] = in vivo
[3] = target: T1, 5α-reductase (Homo sapiens, UniProt P31213); conditions: stable enzyme complex with 5α-reductase
T1 sequence (P31213 1-254): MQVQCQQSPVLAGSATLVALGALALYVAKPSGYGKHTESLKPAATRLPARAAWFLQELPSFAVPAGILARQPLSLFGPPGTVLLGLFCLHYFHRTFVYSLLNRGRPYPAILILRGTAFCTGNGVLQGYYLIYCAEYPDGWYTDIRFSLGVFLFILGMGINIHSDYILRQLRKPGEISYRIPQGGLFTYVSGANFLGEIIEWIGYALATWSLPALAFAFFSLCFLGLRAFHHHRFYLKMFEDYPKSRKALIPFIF

half life (plasma / elimination) [1]	bioavailability [1]	Structure (SMILES)	other results
approximately 12 hours	greater than 90%	COc1cc2nc(N3CCN(C(=O)C4CCCO4)CC3)nc(N)c2cc1OC (stereo not drawn) [Terazosin]	water solubility: more water soluble than prazoin
about 5 hours	less than 30%	O=C(NC1CCN(CCc2c[nH]c3ccccc23)CC1)c1ccccc1 [Indoramin]	–

Further lines, the compound ahead of its results:

Structure (SMILES)	half life (plasma / elimination) [1]	bioavailability [1]	other results
COc1cc2nc(N(C)CCCNC(=O)C3CCCO3)nc(N)c2cc1OC (stereo not drawn) [Alfuzosin]	about 5 hours	–	–
Cn1c(=O)c2[nH]cnc2n(C)c1=O [theophylline]	–	–	dose excreted unchanged in the urine [2]: about 10%
CC(C)(C)NC(=O)[C@H]1CC[C@H]2[C@@H]3CC[C@H]4NC(=O)C=C[C@]4(C)[C@H]3CC[C@]12C [Finasteride, N-(2-methyl-2-propyl)3-oxo-4-aza-5α-androst-1-ene-17β-carboxamide]	–	–	turnover from the enzyme complex (t½) [3]: ~30 days
CC(COc1ccccc1)N(CCCl)Cc1ccccc1 (stereo not drawn) [Phenoxybenzamine]	–	–	half life ([1]; administered intravenously): approximately 24 hours
